Assay results reported in patent US9226950B2, “Method and composition for treating diabetes mellitus” (National Dong Hwa University, priority 2013, dated 2016).

Columns and labels:
AKT = assay: Phosphorylation of AKT on Thr308 in L6 cells, Western blot; assay type: cell-based, rat; details: 10 μM insulin (Ins) alone, 30 min, FIG. 1(b)
Procedure: (§1) […] muscle myoblast cells (L6) was a generous gift from Professor Hitoshi Ashida's Lab. (Kobe University, Kobe, Japan). The cells were grown and maintained in α-minimal essential medium (α-MEM, 12000022, GIBCO, CA, USA) containing 10% fetal bovine serum (FBS, GIBCO) and 1% penicillin streptomycin (GIBCO) in a cell culture incubator with 5% CO2 at 37° C. Prior to the following experiments, the cells were seeded and cultured at a density of 8×10^3 cells per well in 96-well plates or 2.5×10^5 cells per well in 6-well plates. After the myoblasts achieved 80% confluence, the cells were incubated for 5 days in the α-MEM supplemented with 2% FBS to induce differentiation to myotubes.
The L6 cells were fully differentiated with α-MEM supplemented with 2% FBS for 5 days to myotubes. The cells were washed twice with PBS containing 0.1% BSA and subsequently incubated α-MEM containing 0.25% BSA with or without 100 nM of S961, and then treated with or without 100 μM of Tetracosanol for 90 min. Then, the cells were treated with or without 10 μM of insulin for 30 min. Finally, the cells were collected and washed twice in KRH buffer, then lysed in ice-cold RIPA buffer for 60 min. After centrifugation at 12,000×g for 30 min. at 4° C., the supernatant was kept at −80° C. until use. The levels of the proteins including phospho-AKT (Thr308), AKT, phospho-AMPK (Thr172), and AMPK (Cell Signaling) were detected and evaluated by Western blot with primary antibody.
The cells after treatments were collected and washed twice in cold KRH buffer, and then lysed in ice-cold RIPA buffer incubation at 4° C. for 60 min. After centrifugation at 12,000×g for 30 min at 4° C., the supernatant was kept and quantified by Bradford protein assay (Bio-Rad, Hercules, Calif., USA). The proteins were separated using sodium dodecyl sulfate polyacrylamide gel electrophoresis (SDS-PAGE) and subsequently transferred to PVDF (Perkin Elmer Life Sciences, Boston, Mass., USA) membrane. […] The signals were monitored using Western Lightning™ Plus-ECL (Perkin Elmer Life Sciences) and the PVDF membrane was exposed to Luminescent image analyzer (LAS)-3000 (Fujifilm, Minato, Tokyo, Japan). Acquired data were analyzed and compared the difference among treatments.
The differentiated L6 cells were incubated with 100 μM of tetracosanol (Tet) at 37° C. for 90 min, and then treated 10 μM of insulin (Ins) at 37° C. for 5 or 30 min. The cell lysates were separated by SDS-PAGE and blotted 5 min for phospho-Insr on Tyr1158, 1162, and 1163 (Insr, 100 kDa), and phospho-AKT on Thr308 protein level was measured at 30 min in Western blot analysis.

Insr = target: T1, Insr (Rattus norvegicus, UniProt P15127); assay: Phosphorylation of insulin receptors (Tyr1158/Tyr1162/Tyr1163) in L6 cells, Western blot; assay type: cell-based; details: 10 μM insulin (Ins) alone, 5 min, FIG. 1(a)
T1 construct: L6 cells were fully differentiated with α-MEM supplemented with 2% FBS for 5 days to myotubes; endogenous in cells; host or cells: L6 myoblasts differentiated to myotubes
Procedure: as §1
L6 cells were fully differentiated with α-MEM supplemented with 2% FBS for 5 days to myotubes. The cells were washed twice with Phosphate Buffered Saline (PBS) containing 0.1% BSA and subsequently incubated α-MEM containing 0.25% BSA with or without 100 nM of S961, and treated with or without 100 μM of Tetracosanol for 90 min. Then, the cells were treated with or without 10 μM of insulin for 5 min. […] The levels of the proteins including phospho-Insulin receptors (Tyr1158/Tyr1162/Tyr1163) and Insulin receptor (Cell Signaling, Boston, Mass., USA) were detected and evaluated by Western blot with primary antibody.
The cells after treatments were collected and washed twice in cold KRH buffer, and then lysed in ice-cold RIPA buffer incubation at 4° C. for 60 min. After centrifugation at 12,000×g for 30 min at 4° C., the supernatant was kept and quantified by Bradford protein assay (Bio-Rad, Hercules, Calif., USA). […] The signals were monitored using Western Lightning™ Plus-ECL (Perkin Elmer Life Sciences) and the PVDF membrane was exposed to Luminescent image analyzer (LAS)-3000 (Fujifilm, Minato, Tokyo, Japan). Acquired data were analyzed and compared the difference among treatments. […]

T1 sequence (P15127 27-759 limits assumed): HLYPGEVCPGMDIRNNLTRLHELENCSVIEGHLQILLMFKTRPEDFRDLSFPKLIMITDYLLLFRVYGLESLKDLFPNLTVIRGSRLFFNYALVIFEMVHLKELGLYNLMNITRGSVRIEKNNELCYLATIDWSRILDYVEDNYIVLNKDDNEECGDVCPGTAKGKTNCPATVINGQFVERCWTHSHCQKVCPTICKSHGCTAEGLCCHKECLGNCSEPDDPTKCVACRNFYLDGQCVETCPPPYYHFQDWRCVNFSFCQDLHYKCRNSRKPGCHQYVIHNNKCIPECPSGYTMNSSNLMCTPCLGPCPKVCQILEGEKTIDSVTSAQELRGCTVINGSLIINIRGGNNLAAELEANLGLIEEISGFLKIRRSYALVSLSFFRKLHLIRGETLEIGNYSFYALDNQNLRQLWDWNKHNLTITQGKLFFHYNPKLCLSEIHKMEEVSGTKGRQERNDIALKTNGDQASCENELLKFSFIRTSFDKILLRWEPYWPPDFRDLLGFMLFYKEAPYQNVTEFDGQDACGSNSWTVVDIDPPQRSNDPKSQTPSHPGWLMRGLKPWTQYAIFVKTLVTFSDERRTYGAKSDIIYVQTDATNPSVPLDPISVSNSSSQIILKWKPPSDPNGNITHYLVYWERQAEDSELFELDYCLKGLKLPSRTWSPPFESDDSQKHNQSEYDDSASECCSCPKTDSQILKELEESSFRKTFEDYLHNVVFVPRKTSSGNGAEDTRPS
T1 sequence (P15127 764-1383 limits assumed): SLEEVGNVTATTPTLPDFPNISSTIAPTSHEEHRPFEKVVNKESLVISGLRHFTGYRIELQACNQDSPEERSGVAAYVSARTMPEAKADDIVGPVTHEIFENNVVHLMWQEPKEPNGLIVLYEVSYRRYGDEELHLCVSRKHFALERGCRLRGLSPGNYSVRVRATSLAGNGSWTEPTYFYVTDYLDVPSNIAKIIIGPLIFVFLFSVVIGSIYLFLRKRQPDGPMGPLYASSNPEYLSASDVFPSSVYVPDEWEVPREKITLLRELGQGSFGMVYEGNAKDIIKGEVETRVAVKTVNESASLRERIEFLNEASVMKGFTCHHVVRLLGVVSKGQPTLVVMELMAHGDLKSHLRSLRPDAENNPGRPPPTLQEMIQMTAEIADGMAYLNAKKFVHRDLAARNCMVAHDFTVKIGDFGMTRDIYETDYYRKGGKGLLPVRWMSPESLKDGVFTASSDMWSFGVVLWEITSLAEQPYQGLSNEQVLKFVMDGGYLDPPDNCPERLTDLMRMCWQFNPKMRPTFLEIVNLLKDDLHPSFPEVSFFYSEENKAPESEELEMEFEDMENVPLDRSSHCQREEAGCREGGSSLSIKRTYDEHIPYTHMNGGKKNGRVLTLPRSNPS

Substance: insulin: Insulin purchased from Novo-Nordisk [reference compound]
- phospho-AKT on Thr 308 (AKT): induced the phospho-AKT on Thr 308
- phosphorylation of phospho-Insr on Tyr1158, 1162, and 1163 (Insr): tended to be enhanced
